In patent US10399976B2, “Dihydropyrrolopyridine inhibitors of ROR-gamma” (Vitae Pharmaceuticals, LLC, priority 2014, dated 2019):

How the values were obtained:
[1] = target: recombinant RORγ Ligand Binding Domain (LBD) (Homo sapiens (Human), UniProt P51449); assay: Radio-Ligand RORγ Binding Assay (Assay 1); details: cell-free competition with 25-hydroxy [26,27-3H]-cholesterol, SPA; read-out: RORγ Binding Ki Range*
Protocol: Radio-Ligand ROR ? Binding Assay (Assay 1)
Compounds of the present invention were tested for ability to bind to ROR ? in a cell-free competition assay with commercially available radio-ligand (RL), 25-hydroxy [26,27-^3H]-cholesterol (PerkinElmer, Cat. # NET674250UC), for a ligand binding site on a recombinant ROR ? Ligand Binding Domain (LBD) protein expressed as a 6×His-Glutathione-S-Transferase (GST) fusion. […] The plate was shaken at 700 rpm for 20 min and incubated for 10 min at rt, after which 40 μL of poly-Lys YSi SPA beads (PerkinElmer, Cat. # RPNQ0010) were added to achieve 50 μg of the beads per well. The plate was incubated on an orbital shaker for 20 min and then for 10 min without agitation at rt. SPA signal for tritium beta radiation was registered on PerkinElmer Microbeta plate reader. […] The percent inhibition vs. concentration data were fit into a four-parameter model, and IC50 values were calculated from the fit as the concentrations corresponding to the inflection points on the dose-response curves.

[2] = target: full-length RORγt in Jurkat cells (Homo sapiens (Human), UniProt P51449); assay: RORγt 5×RORE Assay in Jurkat Cells (Assay 2); format: cell-based; details: Nanoluc luciferase reporter, 16-18 hrs, read-out: RORγt5X IC50 Range*
Protocol: [formula] ROR ? t 5×RORE Assay in Jurkat Cells (Assay 2)
Compounds of the present invention were tested for ROR ? inverse agonist activity in a cell-based, transcriptional activity assay. […] (Promega, Cat. # N1021) using KpnI and HindIII restriction sites. […] Luciferase activity in the conditioned supernatants was determined with NanoGlo® assay reagents (Promega, Cat.# N1130).

recombinant RORγ Ligand Binding Domain (LBD), sequence (P51449 269-508): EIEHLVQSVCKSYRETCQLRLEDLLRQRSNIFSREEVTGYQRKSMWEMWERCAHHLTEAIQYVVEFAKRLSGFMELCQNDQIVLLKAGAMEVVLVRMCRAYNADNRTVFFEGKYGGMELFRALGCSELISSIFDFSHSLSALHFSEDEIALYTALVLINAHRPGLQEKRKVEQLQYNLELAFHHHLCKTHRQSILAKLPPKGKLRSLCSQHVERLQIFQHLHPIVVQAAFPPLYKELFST
full-length RORγt in Jurkat cells, sequence (P51449 other isoform, or with tags, fused parts or gaps): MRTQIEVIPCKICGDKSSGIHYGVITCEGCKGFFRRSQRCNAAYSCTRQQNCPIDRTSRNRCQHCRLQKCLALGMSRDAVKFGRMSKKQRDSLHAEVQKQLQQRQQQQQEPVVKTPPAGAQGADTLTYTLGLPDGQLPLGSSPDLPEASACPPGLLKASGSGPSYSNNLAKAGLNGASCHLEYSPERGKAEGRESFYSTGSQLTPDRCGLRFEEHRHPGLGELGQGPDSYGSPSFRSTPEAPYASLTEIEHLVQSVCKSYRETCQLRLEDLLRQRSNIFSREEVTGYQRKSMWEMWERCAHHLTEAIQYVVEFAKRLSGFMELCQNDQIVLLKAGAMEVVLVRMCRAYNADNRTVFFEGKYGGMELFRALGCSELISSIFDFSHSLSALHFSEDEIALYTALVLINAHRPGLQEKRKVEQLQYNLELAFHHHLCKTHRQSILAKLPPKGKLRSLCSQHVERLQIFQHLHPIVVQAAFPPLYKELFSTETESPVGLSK

SMILES	Ki [1]	IC50 [2]
CC(C)[C@H]1c2ncc(C(=O)NCc3cnn(C)c3)cc2CN1Cc1ccc(C(F)(F)F)cc1 [Compound 76]	100 to 1000 nM	–
CCS(=O)(=O)n1cc(CNC(=O)c2cnc3c(c2)CN(Cc2ccc(C(F)(F)F)cc2)[C@H]3C(C)C)cn1 [Compound 133]	< 100 nM	100 to 1000 nM
CC(C)[C@H]1c2ncc(C(=O)NCc3ccnn3C)cc2CN1Cc1ccc(C(F)(F)F)cc1 [Compound 73]	> 1000 nM	–
